Laboratory results published in the supplement of paper PMC10307832.

Assays:
Assay in all cases: relative viability (nuclei count vs DMSO), 5 days (fraction); higher = more cells survive
NCI-H2228 = tested on: NCI-H2228
Outline: (§1)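 Values are medians from duplicate plates. Each reflects relative viability, defined as the nuclei count of treated wells over that of vehicle wells. Lung cancer cell lines in 1536-well plates were pin-tool dosed one day after seeding with one drug alone or with a fixed anchor-drug dose plus five library-drug doses (not always all listed) in √10 steps, then fixed, stained and imaged at 4× after 5 days.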

COR-L23 = tested on: COR-L23
Outline: as §1

NCI-H23 = tested on: NCI-H23
Outline: as §1

EMC-BAC-2 = tested on: EMC-BAC-2
Outline: as §1

HCC-78 = tested on: HCC-78
Outline: as §1

ABC-1 = tested on: ABC-1
Outline: as §1

LC-2-ad = tested on: LC-2-ad
Outline: as §1

NCI-H358 = tested on: NCI-H358
Outline: as §1

NCI-H1793 = tested on: NCI-H1793
Outline: as §1

NCI-H2405 = tested on: NCI-H2405
Outline: as §1

NCI-H1395 = tested on: NCI-H1395
Outline: as §1

## COc1cc2nccc(Oc3ccc(NC(=O)Nc4cc(C)on4)c(Cl)c3)c2cc1OC [Tivozanib] + CS(=O)(=O)N1CCN(Cc2cc3nc(-c4cccc5[nH]ncc45)nc(N4CCOCC4)c3s2)CC1 [Pictilisib] (partner 1 µM)
NCI-H2228; first compound 0.005 µM
  relative viability: 0.402
NCI-H2228; first compound 0.01581 µM
  relative viability: 0.421
NCI-H2228; first compound 0.05 µM
  relative viability: 0.528
NCI-H2228; first compound 0.1581 µM
  relative viability: 0.297
NCI-H2228; first compound 0.5 µM
  relative viability: 0.514
COR-L23; first compound 0.005 µM
  relative viability: 0.733
COR-L23; first compound 0.01581 µM
  relative viability: 0.74
COR-L23; first compound 0.05 µM
  relative viability: 0.917
COR-L23; first compound 0.1581 µM
  relative viability: 0.575
COR-L23; first compound 0.5 µM
  relative viability: 0.565
NCI-H23; first compound 0.005 µM
  relative viability: 0.443
NCI-H23; first compound 0.01581 µM
  relative viability: 0.471
NCI-H23; first compound 0.05 µM
  relative viability: 0.409
NCI-H23; first compound 0.1581 µM
  relative viability: 0.319
NCI-H23; first compound 0.5 µM
  relative viability: 0.49
EMC-BAC-2; first compound 0.005 µM
  relative viability: 0.561
EMC-BAC-2; first compound 0.01581 µM
  relative viability: 0.529
EMC-BAC-2; first compound 0.05 µM
  relative viability: 0.554
EMC-BAC-2; first compound 0.1581 µM
  relative viability: 0.389
EMC-BAC-2; first compound 0.5 µM
  relative viability: 0.578
HCC-78; first compound 0.005 µM
  relative viability: 0.188
HCC-78; first compound 0.01581 µM
  relative viability: 0.235
HCC-78; first compound 0.05 µM
  relative viability: 0.207
HCC-78; first compound 0.1581 µM
  relative viability: 0.14
HCC-78; first compound 0.5 µM
  relative viability: 0.206
ABC-1; first compound 0.005 µM
  relative viability: 0.775
ABC-1; first compound 0.01581 µM
  relative viability: 0.673
ABC-1; first compound 0.05 µM
  relative viability: 0.794
ABC-1; first compound 0.1581 µM
  relative viability: 0.646
ABC-1; first compound 0.5 µM
  relative viability: 0.326
LC-2-ad; first compound 0.005 µM
  relative viability: 0.417
LC-2-ad; first compound 0.01581 µM
  relative viability: 0.353
LC-2-ad; first compound 0.05 µM
  relative viability: 0.263
LC-2-ad; first compound 0.1581 µM
  relative viability: 0.204
LC-2-ad; first compound 0.5 µM
  relative viability: 0.159
NCI-H358; first compound 0.005 µM
  relative viability: 0.345
NCI-H358; first compound 0.01581 µM
  relative viability: 0.332
NCI-H358; first compound 0.05 µM
  relative viability: 0.386
NCI-H358; first compound 0.1581 µM
  relative viability: 0.254
NCI-H358; first compound 0.5 µM
  relative viability: 0.367
NCI-H1793; first compound 0.005 µM
  relative viability: 0.222
NCI-H1793; first compound 0.01581 µM
  relative viability: 0.257
NCI-H1793; first compound 0.05 µM
  relative viability: 0.364
NCI-H1793; first compound 0.5 µM
  relative viability: 0.292
NCI-H2405; first compound 0.005 µM
  relative viability: 0.34
NCI-H2405; first compound 0.01581 µM
  relative viability: 0.398
NCI-H2405; first compound 0.05 µM
  relative viability: 0.428
NCI-H2405; first compound 0.1581 µM
  relative viability: 0.312
NCI-H2405; first compound 0.5 µM
  relative viability: 0.342
NCI-H1395; first compound 0.005 µM
  relative viability: 0.671
NCI-H1395; first compound 0.01581 µM
  relative viability: 0.746
NCI-H1395; first compound 0.05 µM
  relative viability: 0.769
NCI-H1395; first compound 0.1581 µM
  relative viability: 0.627
NCI-H1395; first compound 0.5 µM
  relative viability: 0.678
